Source: patent publication US20230354862A1, “ANTI-DIABETIC COMPOSITION CONTAINING BEET MIXTURE AS ACTIVE INGREDIENT” (BAE RYEO INNOVATION CO., LTD., priority 2021, published 2023)

How the values were obtained:
db/db mice [1] = experiment: Weekly biomarker analysis in type 2 diabetes model (body weight, food and water intake, blood glucose); format: in vivo, mouse; conditions: 300 mg/kg metformin (Met 300)
Description: (§1) As experimental animals, 5-week-old specific-pathogen free (SPF) male db/db mice were obtained from Central Laboratory Animal, Inc. (Seoul, Korea), and acclimated for 1 week before use in the experiment. As an experimental food, normal mouse feed (Purina Lab Rodent Chow #38057, Purina Co., Seoul Korea) was fed, and during the acclimatization period, filtered water was replaced with fresh one daily and the animals were allowed access ad libitum to water. During the breeding period, the animals were kept under the following conditions: temperature, 23±1° C.; humidity, 50±5%; noise, 60 phone or less; lighting time, 08:00 to 20:00 (12 hours a day); illumination, 150 to 300 Lux; 10 to 12 ventilations per hour. This experiment was conducted in compliance with the Animal Experimental Ethics Regulations.
(§2) After completion of the acclimatization period, the experimental animals were divided into groups using the randomized block design based on fasting blood glucose that the mean values between the groups were uniform, and then the animals were marked using an ear punch. The animals were divided into a normal group, a control group, a group to which 10 mg/kg of the beet mixture was administered (10 mg/kg Beta vulgaris mixture group), a group to which 30 mg/kg of the beet mixture was administered (30 mg/kg Beta vulgaris mixture group), a group to which 30 mg/kg of the beet mixture was administered (30 mg/kg Beta vulgaris mixture group), and a positive control group (300 mg/kg metformin), each consisting of 8 animals. Each sample was orally administered 5 times a week for 3 weeks.
Weekly body weight and blood sugar level were all measured once a week at a certain time, and food intake and water intake were measured the next day after feeding certain amounts of food and water once a week. Weekly blood glucose levels were measured using blood collected from the caudal veins using a blood glucose meter (AutoCheck, Diatech Korea) at a certain time every week. […]
(§3) All experimental results were calculated as mean±standard error (S.E.) using SPSS ver. […]

db/db mice [2] = experiment: Oral glucose tolerance test in type 2 diabetes model; format: in vivo, mouse; conditions: 300 mg/kg metformin (Met 300)
Description: as §1
(§4) After completion of the acclimatization period, the experimental animals were divided into groups using the randomized block design based on fasting blood glucose that the mean values between the groups were uniform, and then the animals were marked using an ear punch. […]
as §3

db/db mice [3] = experiment: Glycated hemoglobin (HbA1c) analysis in type 2 diabetes model; format: in vivo, mouse; conditions: after 3 weeks, 300 mg/kg metformin (Met 300)
Description: as §1, §4, §3

db/db mice [4] = experiment: Tissue weight analysis in type 2 diabetes model; format: in vivo, mouse; conditions: 300 mg/kg metformin (Met 300)
Description: as §1, §2
(§5) Weekly body weight and blood sugar level were all measured once a week at a certain time, and food intake and water intake were measured the next day after feeding certain amounts of food and water once a week. Weekly blood glucose levels were measured using blood collected from the caudal veins using a blood glucose meter (AutoCheck, Diatech Korea) at a certain time every week. For autopsy, blood was collected from the abdominal vena cava after inhalation anesthesia and used for blood analysis, and the liver, epididymal fat, pancreas, and kidney were harvested and weighed.
(§6) All experimental results were calculated as mean±standard error (S.E.) using SPSS ver. 12.0 (SPSS Inc., Chicago, IL, USA). Statistically significant differences between experimental groups were tested using a one-way analysis of variance test (ANOVA), and in case of significance (p<0.05), a post-test was performed with the Duncan's multiple range test.

db/db mice [5] = experiment: Hematological (serum) analysis in type 2 diabetes model; format: in vivo, mouse; conditions: 300 mg/kg metformin (Met 300)
Description: as §1, §2, §5
Blood was collected from the abdominal vena cava, placed in conical tubes, coagulated for 30 minutes at room temperature, and then centrifuged at 3,000 rpm for 10 minutes. Analysis of blood fructosamine, TC, TG, LDL-C, HDL-C, and VLDL levels were performed by KPNT (Cheongju, Korea), and insulin analysis was performed using an ELISA kit (Crystalchem, USA). HOMA-IR and HOMA-beta levels were calculated based on the blood analysis results.
as §6

db/db mice [6] = experiment: Histological analysis of β-cell area (insulin immunostaining of pancreas); format: in vivo, mouse; conditions: 300 mg/kg metformin (Met 300)
Description: as §1, with “Regulations. […]” for “Regulations.”
Analysis of the islets of Langerhans in the pancreatic tissue was performed by immunostaining. […] After washing twice with TBST buffer for 5 min, samples were reacted with 2.5% normal goat serum for blocking (Vector, USA) for 20 min, and then the blocking reagent and working insulin antibody (Cell Signaling, MA, USA) solution (2 to 10 μl of antibody to 1 ml of Ready-To-Use 2.5% normal goat serum for blocking) was reacted at 4° C. overnight. […]
as §3

SD rats [7] = experiment: Oral starch tolerance test (OATT); format: in vivo, rat
Description: As an experimental food, normal mouse feed (Purina Lab Rodent Chow #38057, Purina Co., Seoul Korea) was fed, and during the acclimatization period, filtered water was replaced with fresh one and the animals were allowed access ad libitum to water. During the breeding period, the animals were kept under the following conditions: temperature, 23±1° C.; humidity, 50±5%; noise, 60 phone or less; lighting time, 08:00 to 20:00 (12 hours a day); illumination, 150 to 300 Lux; 10 to 12 ventilations per hour. This experiment was conducted in compliance with the Animal Experimental Ethics Regulations. After completion of the acclimatization period, the experimental animals were divided into groups using the randomized block design based on fasting blood glucose that the mean values between the groups were uniform, and then the animals were marked using an ear punch. […] Changes in blood glucose levels in each group were analyzed based on the measured blood glucose levels. All experimental results were calculated as mean±standard error (mean±S.E.) using the statistical program (SPSS ver. 12.0, SPSS Inc., Chicago, IL, USA). […]

SD rats [8] = experiment: Oral sucrose tolerance test (OSTT); format: in vivo, rat; conditions: 3 mg/kg acarbose (A 3)
Description: As an experimental food, normal mouse feed (Purina Lab Rodent Chow #38057, Purina Co., Seoul Korea) was fed, and during the acclimatization period, filtered water was replaced with fresh one and the animals were allowed access ad libitum to water. During the breeding period, the animals were kept under the following conditions: temperature, 23±1° C.; humidity, 50±5%; noise, 60 phone or less; lighting time, 08:00 to 20:00 (12 hours a day); illumination, 150 to 300 Lux; 10 to 12 ventilations per hour. This experiment was conducted in compliance with the Animal Experimental Ethics Regulations. After completion of the acclimatization period, the experimental animals were divided into groups using the randomized block design based on fasting blood glucose that the mean values between the groups were uniform, and then the animals were marked using an ear punch. The animals were divided into a normal group, a control group, a group to which 10 mg/kg of the beet mixture was administered (10 mg/kg Beta vulgaris mixture group), a group to which 30 mg/kg of the beet mixture was administered (30 mg/kg Beta vulgaris mixture group), a group to which 30 mg/kg of the beet mixture was administered (30 mg/kg Beta vulgaris mixture group), and a positive control group (3 mg/kg acarbose), each consisting of 8 animals. Using these groups, an oral sucrose tolerance test (OSTT) and an oral starch tolerance test (OATT) were conducted. […] Changes in blood glucose levels in each group were analyzed based on the measured blood glucose levels. All experimental results were calculated as mean±standard error (mean±S.E.) using the statistical program (SPSS ver. 12.0, SPSS Inc., Chicago, IL, USA). Statistically significant differences between experimental groups were tested using a one-way analysis of variance test (ANOVA), and in case of significance (p<0.05), a post-test was performed with the Duncan's multiple range test.

## CN(C)C(=N)N=C(N)N [metformin]
db/db mice [1]
  blood glucose level at 1 week after sample administration: 167.0 ± 19.1 mg/dL
  blood glucose level at 3 weeks after sample administration: 238.8 ± 21.9 mg/dL
  body weight at week 3: 34.04 ± 0.35 g
db/db mice [2]
  blood glucose level at 30 min after oral glucose administration: 382.0 ± 31.0 mg/dL
  change in blood glucose level after glucose administration (OGTT AUC): 778.06 ± 262.53 mg/dL
db/db mice [3]
  HbA1c level: 6.79±0.29%
db/db mice [4]; after 3 weeks
  kidney tissue weight: 0.303 ± 0.008 g
  liver tissue weight: 1.97 ± 0.06 g
db/db mice [4]; at autopsy
  epididymal fat tissue weight: 1.761 ± 0.038 g
  pancreatic tissue weight: 0.116 ± 0.005 g
db/db mice [5]
  HOMA-IR level (insulin resistance): 0.975±0.199
  HOMA-β level (insulin secretion ability): 6.863±0.404
  serum HDL cholesterol level: 105.09 ± 2.63 mg/dL
  serum fructosamine level: 319.13 ± 10.89 µmol/L
  serum total cholesterol level: 126.50 ± 2.24 mg/dL
db/db mice [5]; after 3 weeks
  LDL cholesterol level: 12.94 ± 0.84 mg/dL
  serum insulin level: 12.94 ± 0.84 ng/mL
  serum triglyceride level: 236.13 ± 11.87 mg/dL
db/db mice [6]
  β-cell area: 83242.23±11320.56 μm^2

## C[C@H]1O[C@H](O[C@H]2[C@H](O)[C@@H](O)[C@@H](O[C@H]3[C@H](O)[C@@H](O)C(O)O[C@@H]3CO)O[C@@H]2CO)[C@H](O)[C@@H](O)[C@@H]1N[C@H]1C=C(CO)[C@@H](O)[C@H](O)[C@H]1O (stereo partly drawn) [acarbose]
SD rats [7]; 3 mg/kg acarbose (A 3)
  change in blood glucose after starch administration (AUC): 197.32 ± 7.12 mg/dL
SD rats [7]; 3 mg/kg acarbose oral (A 3)
  blood glucose level at 30 min after starch administration: 90.63 ± 3.80 mg/dL
SD rats [8]
  blood glucose level at 30 min after sucrose administration: 95.88 ± 3.20 mg/dL
  blood glucose level at 120 min after sucrose administration: 80.38 ± 1.76 mg/dL
  change in blood glucose level after sucrose administration (AUC): 197.32 ± 7.12 mg/dL
